According to ChEMBL document CHEMBL1140461, “Design and synthesis of thiazole-5-hydroxamic acids as novel histone deacetylase inhibitors” (Bioorg Med Chem Lett, 2007):

Columns and labels:
Histone deacetylase = assay: Inhibition of HDAC activity in HeLa cell nuclear extract by fluorescent assay; assay type: protein assay, Homo sapiens
MCF7 = assay: Antiproliferative activity against human MCF7 cells; assay type: functional

| SMILES | IC50 (Histone deacetylase) [µM] | GI50 (MCF7) [µM] |
| --- | --- | --- |
| O=C(NO)c1cnc(N2CCN(S(=O)(=O)c3ccc(-c4ccccc4)cc3)CC2)s1 | 0.2 | 1.8 |
| O=C(/C=C/c1cnc(N2CCN(S(=O)(=O)c3ccc4ccccc4c3)CC2)s1)NO | 0.05 | 0.7 |
| O=C(NO)c1cnc(N2CCN(C(=O)Cc3ccccc3)CC2)s1 | 32 | 20 |
| CC(=O)N1CCN(c2ncc(C(=O)NO)s2)CC1 | 2.8 | > 100 |
| O=C(NO)c1cnc(N2CCN(C(=O)c3ccccc3)CC2)s1 | 3.5 | 40 |
| O=C(/C=C/c1cnc(N2CCN(S(=O)(=O)c3ccc(C(F)(F)F)cc3)CC2)s1)NO | 15 | 3 |
| COc1ccc(S(=O)(=O)N2CCN(c3ncc(/C=C/C(=O)NO)s3)CC2)cc1OC | 0.16 | 4 |
| COc1ccc(S(=O)(=O)N2CCN(c3ncc(C(=O)NO)s3)CC2)cc1OC | 0.07 | 2 |
| O=C(/C=C/c1cnc(N2CCN(S(=O)(=O)c3ccc(-c4ccccc4)cc3)CC2)s1)NO | 11 | 15 |
| Cc1ccc(S(=O)(=O)N2CCN(c3ncc(C(=O)NO)s3)CC2)cc1 | 0.09 | 0.35 |
| O=C(NO)c1cnc(N2CCN(Cc3ccccc3)CC2)s1 | > 100 | 4 |
| O=C(NO)c1cnc(N2CCN(S(=O)(=O)c3ccc([N+](=O)[O-])cc3)CC2)s1 | 0.4 | 10 |
| CN1CCN(c2ncc(C(=O)NO)s2)CC1 | > 100 | > 100 |
| Cc1ccc(S(=O)(=O)N2CCN(c3ncc(/C=C/C(=O)NO)s3)CC2)cc1 | 0.55 | 2 |
| O=C(NO)c1cnc(N2CCN(CCc3ccccc3)CC2)s1 | > 100 | > 100 |
| O=C(/C=C/c1cnc(N2CCN(S(=O)(=O)c3ccccc3)CC2)s1)NO | 0.44 | 3 |
| O=C(/C=C/c1cnc(N2CCN(S(=O)(=O)c3ccc(OC(F)(F)F)cc3)CC2)s1)NO | 3.2 | 6 |
| O=C(NO)c1cnc(N2CCN(S(=O)(=O)c3ccccc3)CC2)s1 | 0.57 | 10 |
| O=C(NO)c1cnc(N2CCN(S(=O)(=O)c3ccc(F)cc3)CC2)s1 | 0.15 | 3.5 |
| O=C(NO)c1cnc(N2CCN(S(=O)(=O)c3ccc4ccccc4c3)CC2)s1 | 0.22 | 2 |
| O=C(NO)c1cnc(N2CCN(S(=O)(=O)c3ccc(OC(F)(F)F)cc3)CC2)s1 | 1.2 | 4 |
| O=C(/C=C/c1cnc(N2CCN(S(=O)(=O)c3ccc([N+](=O)[O-])cc3)CC2)s1)NO | 1.6 | 5 |
| O=C(/C=C/c1cnc(N2CCN(S(=O)(=O)c3ccc(F)cc3)CC2)s1)NO | 4.7 | 2.5 |
| O=C(NO)c1cnc(N2CCN(S(=O)(=O)c3ccc(C(F)(F)F)cc3)CC2)s1 | 2.6 | 4 |
